US12391799B2, “Peptoid polymers and methods of use” (X-Therma, Inc., priority 2017, dated 2025)
Entries after “also recorded” stand apart in the source; their conditions may differ.

Assays:
[1] = Vitrification screening assay (critical EG concentration); type: physicochemical; conditions: lowest EG for complete vitrification of 20 μL sample, 5 mg/mL peptoid in formulation, liquid nitrogen immersion
Description: As another means of increasing the throughput of library analysis, a vitrification screening assay was performed to evaluate anti-icing efficacy. For these experiments the compounds named “Compound 11,” “Compound 12,” “Compound 25,” Compound 26,” “Compound 27,” “Compound 28,” “Compound 60,” “Compound 62,” “Compound 63,” “Compound 64,” “Compound 69,” “Compound 70,” “Compound 71,” “Compound 72,” “Compound 73,” “Compound 74,” “Compound 75,” “Compound 76,” “Compound 77,” “Compound 78,” “Compound 81,” “Compound 82,” “Compound 83,” “Compound 84,” and “Compound 85” were tested.
For these experiments, 20 μL samples were flash frozen by liquid immersion in liquid nitrogen. Ethylene glycol (EG) concentrations between 5% and 25% (v/v) were used. A concentration of 5 mg/mL of peptoid polymer compounds were used in formulation. Table 12 lists the lowest concentration of EG necessary to bring about complete vitrification of a 20 μL sample with peptoid polymer in formulation, referred to as the “critical EG concentration.” A sample of formulation without the presence of a peptoid polymer was only able to bring about vitrification at 20% or more EG. Peptoid polymers of interest were able to bring about vitrification within formulas containing EG when the concentration of EG was lower than 20%.

[2] = tested on: K562 cells; assay: K562 survival after storage at −80° C. for 3 days (Alamar Blue); type: cell-based; conditions: 1% peptoid in XT Formula, K562 stored at −80° C. for 3 days
Description: Several compounds were examined in XT Formula at 1% concentration (i.e., 1% peptoid polymer concentration) for their effects on the cryopreservation of cells. In particular, the effects of these compounds on the survival of K562 cells stored at −80° C. for 3 days were evaluated. An Alamar Blue assay was used to assess cell survival 1 day after stored cells were thawed. A 10% DMSO formula and DMEM cell media only were used as controls.

[3] = tested on: K562 cells; assay: K562 viability after storage at −20° C. for 3 days (Alamar Blue); type: cell-based; conditions: 1% peptoid in XT Formula, K562 stored at −20° C. for 3 days, vs. XT Formula alone
Description: Several compounds were examined in XT Formula at 1% concentration (i.e., 1% peptoid polymer concentration) for their ability to increase the viability of cells subjected to super-cooled storage. XT Formula contains HTK buffer, among other components. In particular, the effects of these compounds on the viability of K562 cells stored at −20° C. for 3 days were evaluated. An Alamar Blue assay was used to assess cell viability 7 days after stored cells were thawed.

[4] = Crystallographic x-ray diffraction (XRD) ice crystal formation assay; type: physicochemical
Description: In order to increase the throughput of library analysis, a crystallographic x-ray diffraction (XRD) technique was used to evaluate ice crystal formation. For these experiments, the compounds named “Compound 2,” “Compound 8,” “Compound 10,” “Compound 11,” “Compound 12,” “Compound 13,” and “Compound 58” were tested. Compound 58 is similar to Compound 12, except that an arginine amino acid has been appended to the N-terminal end.
For these experiments, EG concentrations between 15% and 30% (v/v) were used. Typically, EG, DMSO, and other cryoprotectants are used during XRD sample analysis at concentrations of 35-40% (v/v) to vitrify solutions and avoid diffraction interference from ice crystals. Concentrations of 1 and 5 mg/mL of the peptoid and peptoid-peptide compounds were used. FIGS. 3A, 3B, and 3C illustrate exemplary XRD data under conditions of complete vitrification, partial vitrification with the presence of cubic ice, and freezing ([…]), respectively. FIG. 3D provides ice rings scores for a variety of EG concentrations and two concentrations of Compounds 2, 8, and 12.
“IceRing1” and “IceRing2” refer to ice formation scores, which range between 0 (no ice formation) and 15 (large ice formation).

[5] = tested on: HEK 293 cell line; assay: Cell-based cytotoxicity assay (MTT); design: species or system human
Description: A Tecan Genesis Robotic Workstation was used to prepare solutions in 96- and 384-well plates. Solutions contained culture media, buffers, a cryoprotectant composition (Compound 12) or DMSO. Solutions were adjusted to the desired pH. Serial dilutions were performed to obtain solutions containing various concentrations of Compound 12 and DMSO. Control experiments were performed using only culture media.
For these experiments, cells were seeded at low density (i.e., 10% confluence), exposed to solutions containing Compound 12 or DMSO, and placed in a 37° C. incubator. The cells were allowed to grow until control cells that were treated only with empty vehicle approached 70% confluence (typically about 3 to 5 days). Assessment for compound cytotoxicity was via MTT assay.

[6] = tested on: HEK 293 cells; assay: Cryopreservation assay, flash freezing in liquid nitrogen, Calcein AM viability; type: cell-based, human
Description: Initial cryopreservation assays were performed using very simple solutions, with and without the addition of Compound 12, in order to minimize confounding outside factors. For this first set of experiments, two sample solutions were prepared. The first sample solution contained simple buffer and ethylene glycol (EG) at a concentration of 22.5% (v/v), and the second sample solution contained simple buffer, EG (22.5% (v/v)), and 5 mg/mL (0.5% (w/v)) of Compound 12.
HEK 293 cells were grown until 70% confluent, then treated with trypsin to remove adhesion proteins and yield free floating cells. Cells were counted using a hemocytometer and sample cell concentrations were adjusted to final concentrations of 10,000 cells per microliter. Cells were then compressed into tight pellets by centrifugation, and each sample was subsequently mixed with 20 μL of one of the sample solutions. Samples were then flash frozen by immersion in liquid nitrogen, followed by rewarming in a 37° C. water bath. After the freeze-thaw process, cells were suspended in a 400× volume of culture media for recovery. The positive control sample was treated with culture media at 37° C. and not subjected to the freeze-thaw process. The negative control sample was treated with culture media only during the freeze-thaw process. After recovery, cells were stained with Calcein AM for 30 minutes and cell viability was measured using a fluorescence plate reader.
A second set of experiments was performed to evaluate the cryopreservation potential of a formulation that contained 5 mg/mL of Compound 12 plus a mixture of glycols, disaccharides, and a general buffer. Post-thaw survival following vitrification in liquid nitrogen was evaluated as described above.

[7] = Larger volume flash freeze / rewarm / −20° C. storage assay; type: physicochemical; conditions: 22.5% EG
Description: In order to test the usefulness of peptoid polymers at larger scales, experiments were performed using solution volumes that are similar to volumes used for standard egg and stem cell preservation. For these experiments, two samples, one containing 22.5% EG and buffer only, and another containing 22.5% EG and 5 mg/ml (0.5% w/v) of Compound 12 and buffer, were flash frozen in liquid nitrogen. […] The rewarming of the solutions in a 37° C. water bath led to an unexpected and beneficial result. The Compound 12 solution bypassed devitrification in less than 2 seconds upon rewarming (FIG. 6B, right), whereas chunks of ice were seen floating in the control sample (FIG. 6B, left) after 20 seconds. Condensation was seen on each of the tubes because the tubes were actually still much below room temperature.

[8] = tested on: K562 cells; assay: Cell toxicity assay in K562 cell culture; type: cell-based; conditions: 1% concentration, 24 hours at 37° C. and 5% CO2
Description: The cytotoxicity of several compounds were evaluated using a typical cell toxicity assay in K562 cell culture. […] As a positive control, some cells were incubated without any peptoid polymer (DMEM). For a negative control, cells were incubated with DMSO (DMEM+10% DMSO).

[9] = 160 mM ethylene glycol in MilliQ water, slow cooled, −20° C., one hour
Description: In this experiment, four water-based samples were prepared in capillary tubes containing MilliQ purified water. One sample contained only water, and another sample contained 160 mM ethylene glycol (EG). The other two samples each contained a peptoid polymer at 9 mM.
After sample preparation, all samples were slow cooled and incubated at −20° C. on a Peltier cooled plate. After one hour, samples were removed and immediately photographed using a digital camera attached to a 180× Stereo Zoom microscope (FIG. 2A).

SMILES	Critical Ethylene Glycol Concentration [1]	cell survival 1 day after thaw [2]	cell viability 7 days after thaw [3]	ice formation after flash freezing (XRD) ([4]; 5 mg/mL (0.5% (w/v)), EG 17.5% (v/v) in water, stream of liquid nitrogen vapor)	anti-icing effect in comparison to EG at the same molar concentration ([4]; 5 mg/mL with EG 17.5% (v/v)) [times]	reduction of necessary EG concentration while preventing ice formation (XRD ice ring scores) ([4]; 1 and 5 mg/mL peptoid, EG 15-30% (v/v))	toxicity by MTT assay ([5]; at 0.5% w/v, the concentration that prevents ice formation)	toxicity by MTT assay ([5]; at concentrations four times greater than 0.5% w/v)	toxicity by MTT assay ([5]; serial dilutions in culture media, 37° C., about 3 to 5 days)	post-thaw survival of the cells ([6]; formulation: 5 mg/mL of Compound 12 plus a mixture of glycols, disaccharides, and a general buffer, vitrification in liquid nitrogen, 16 hours post-thaw) [%]	vitrification of cell sample during the freezing process ([6]; simple buffer, EG 22.5% (v/v), 5 mg/mL)	cell survival after freeze-thaw ([6]; simple buffer, EG 22.5% (v/v), 5 mg/mL vs. same solution without compound, viability 12 hours post-thaw)	devitrification of cell sample on rewarming ([6]; simple buffer, EG 22.5% (v/v), 5 mg/mL vs. sample lacking compound)	vitrification on flash freezing in liquid nitrogen ([7]; 5 mg/ml (0.5% w/v) and buffer)	state after overnight in −20° C. freezer ([7]; 100 μL sample, 5 mg/ml)	cytotoxicity (cell persistence) [8]	ice crystal formation in capillary tube [9]
CCC(C)NCC(=O)N(CC(=O)N(CCCN1CCCC1=O)CC(=O)N(CCCN1CCCC1=O)CC(=O)N(CC(=O)N(CC(=O)N(CCCN1CCCC1=O)CC(=O)N(CCCN1CCCC1=O)CC(=O)N(CC(=O)N(CC(N)=O)C(C)CC)C(C)CC)C(C)CC)C(C)CC)C(C)CC (stereo not drawn) [Compound 76, Nsb-Nsb-Nop-Nop-Nsb-Nsb-Nop-Nop-Nsb-Nsb]	15.0% (ν/ν)	produced the greatest improvement in cell survival	improved cell viability compared to XT Formula alone	–	–	–	–	–	–	–	–	–	–	–	–	–	–
CCC(C)NCC(=O)N(CC(=O)N(CC(=O)N(CC(=O)N(CC(=O)N(CC(=O)N(CC(=O)N(CC(=O)N(CC(=O)N(CC(N)=O)C(C)CC)C(C)CC)CC(C)O)CC(C)O)C(C)CC)C(C)CC)CC(C)O)CC(C)O)C(C)CC (stereo not drawn) [Compound 12, Nsb-Nsb-Nhp-Nhp-Nsb-Nsb-Nhp-Nhp-Nsb-Nsb]	15.0% (ν/ν)	–	improved cell viability compared to XT Formula alone	ice-free after flash freezing	500	significantly reduced necessary EG concentrations while preventing ice formation	did not show toxicity	did not show significant toxicity	did not significantly deviate from the that of culture media alone	98	complete vitrification without ice formation	greatly improved cell survival	bypassed much more rapidly	complete vitrification with no ice formation; also recorded: vitrified	remained unfrozen	persisted about as well as cell incubated in cell culture media alone (DMEM)	–
OCCO [EG, ethylene glycol]	–	–	–	–	–	–	–	–	–	–	–	–	–	–	–	–	significant ice crystal formation
